The values below come from patent publication US8039668B2, “Naphthalene-based inhibitors of anti-apoptotic proteins” (Burnham Institute for Medical Research, priority 2008, dated 2011).

The target in data set [1] is T1, BCL-XL (Homo sapiens, UniProt Q07817). As to the kind of experiment: 1D 1H-NMR binding assay. As to conditions: for 1D ^1H-NMR Binding Assay (BCL-XL): Table 9. The arrangement: key to 1D-^1H NMR: +++, Very Active; ++, Active; +, Mild; −, Weak. As to the method: By observing the aliphatic region of the spectra, binding could be readily detected due to chemical shift changes in active site methyl groups of Ile, Leu, Thr, Val or Ala (region between −0.8 and 0.3 ppm). All experiments were performed with a 600 MHz spectrometer Bruker Avance 600 equipped with four rf channels and z-axis pulse-field gradients.
Target sequence in this assay (Q07817 whole entry): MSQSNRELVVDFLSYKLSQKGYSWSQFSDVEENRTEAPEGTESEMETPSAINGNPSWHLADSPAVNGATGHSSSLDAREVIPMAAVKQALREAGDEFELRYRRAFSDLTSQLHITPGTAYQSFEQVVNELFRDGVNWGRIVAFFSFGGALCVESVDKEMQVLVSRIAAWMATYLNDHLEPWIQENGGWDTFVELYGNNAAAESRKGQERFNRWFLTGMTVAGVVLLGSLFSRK

Data set [2] deals with T1, BCL-XL. Briefly: Isothermal titration calorimetry (ITC). The class given is binding. The conditions noted are these: vs Apogossypol. Here is the method:
Titrations were performed using a VP-ITC or ITC200 calorimeter from Microcal (Northampton, Mass.). BCL-XL was used at concentrations between 25 and 100 μM in 20 mM sodium phosphate buffer (pH 7.4) and 5-10% DMSO. Titrants were used at concentrations 10-15 fold of that of the protein in the same buffer. Titrations were carried out at 25° C. Data were analyzed using Microcal Origin software provided by the ITC manufacturer (Microcal, Northampton, Mass.).
(In general: Isothermal titration calorimetry measures the heat released or taken up as one component is titrated into another.)
Target sequence in this assay (Q07817 whole entry): as above

The nature of data set [3]: PAMPA cell membrane permeability. The data set is classed as in vitro ADME. As to conditions: Table 11; Low/Medium, not defined. An excerpt: PAMPA is parallel artificial membrane permeation assay.
In data set [4] the target is Mcl-1 (Homo sapiens, UniProt Q07820). Briefly: Competitive fluorescence polarization assay (FPA), Bim BH3 peptide. The class given is binding. As to conditions: vs Apogossypol. (In general: Fluorescence polarisation rises when a labelled molecule tumbles more slowly, as on binding a larger partner.)
Chain of Mcl-1 (Q07820 whole entry): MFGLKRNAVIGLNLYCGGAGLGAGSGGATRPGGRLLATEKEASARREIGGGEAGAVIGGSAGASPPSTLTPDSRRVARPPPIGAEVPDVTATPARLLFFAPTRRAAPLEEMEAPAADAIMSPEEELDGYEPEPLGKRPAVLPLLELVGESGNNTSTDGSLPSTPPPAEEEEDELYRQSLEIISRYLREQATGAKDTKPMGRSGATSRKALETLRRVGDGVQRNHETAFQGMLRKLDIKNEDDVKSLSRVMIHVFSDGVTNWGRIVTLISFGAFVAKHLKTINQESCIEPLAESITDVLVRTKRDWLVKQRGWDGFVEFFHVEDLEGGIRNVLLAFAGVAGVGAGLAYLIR
Data set [5] concerns H460 human lung cell line. As to the kind of experiment: Cell viability, ATP-LITE assay. The data set is classed as cell-based. The gist of the method:
(§1)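 Human cancer lines were seeded at 2000 (H460, H1299), 3000 (PC3) or 10,000 (RS11846) cells/well in F12 or RPMI1640 with 5% FBS. Compounds were added in 0.1% DMSO 24 h after seeding. Viability was read by ATP-LITE luminescence after 72 h and normalized to DMSO controls.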

Data set [6] relates to RS11846 cell line. Briefly: Cell viability, ATP-LITE assay. The data set is classed as cell-based. The conditions noted are these: Homo sapiens, Table 9; read-out: RS11846 EC50 (ATP-LITE assay). The essentials:
as §1

Data set [7] relates to human lymphoma RS11846 cell line. As to the kind of experiment: Apoptosis, Annexin V-FITC and propidium iodide assay. The class given is cell-based.
The target in data set [8] is T1, BCL-XL. As to the kind of experiment: Competitive fluorescence polarization assay (FPA), Bak BH3 peptide. Details: 100 nM GST-BCL-XL ΔTM protein. As to conditions: for IC50: Table 9, read-out: FPA IC50 (BCL-XL). The class given is binding. The essentials: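 100 nM GST-BCL-XL ΔTM preincubated with compound in PBS pH 7.4 for 10 min at room temperature, then FITC-Bak BH3 peptide added. Polarization read after 10 min. IC50 from sigmoidal dose-response fit; mean ± SE of three independent experiments.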
Target sequence in this assay (Q07817 1-209 limits assumed): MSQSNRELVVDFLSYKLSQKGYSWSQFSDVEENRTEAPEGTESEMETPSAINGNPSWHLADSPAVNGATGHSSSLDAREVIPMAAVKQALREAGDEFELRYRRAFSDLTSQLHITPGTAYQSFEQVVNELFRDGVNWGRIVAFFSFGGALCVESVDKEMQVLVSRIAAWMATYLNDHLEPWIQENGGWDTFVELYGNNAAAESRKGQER

In data set [9] the target is Bcl-2 (Homo sapiens, UniProt P10415). Briefly: Competitive fluorescence polarization assay (FPA), Bim BH3 peptide. The class given is binding. The conditions noted are these: vs Apogossypol.
Chain of Bcl-2 (P10415 whole entry, the tested form may be a part): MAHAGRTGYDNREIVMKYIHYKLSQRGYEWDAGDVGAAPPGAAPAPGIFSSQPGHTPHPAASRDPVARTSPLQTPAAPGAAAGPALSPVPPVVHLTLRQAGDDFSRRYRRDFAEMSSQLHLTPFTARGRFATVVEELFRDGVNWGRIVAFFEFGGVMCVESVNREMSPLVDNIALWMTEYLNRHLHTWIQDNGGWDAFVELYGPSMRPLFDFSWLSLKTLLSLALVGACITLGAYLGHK
For data set [10], the system named is B6Bcl-2 transgenic mice. The gist of the method: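 B6 line BCL-2 transgenic mice (human BCL-2 fused to IgH locus/enhancer, Balb/c background) sacrificed 24 h post-treatment by lethal i.p. Avertin. Spleen removed and weighed, fixed 3 days in z-FIX for H&E and TUNEL histology.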
For data set [11], the system named is H1299 cell line. As to the kind of experiment: Cell viability, ATP-LITE assay. The data set is classed as cell-based, human. The essentials: as §1
Data set [12] relates to PC3ML cells. Briefly: Cell viability, ATP-LITE assay. The class given is cell-based, human. The gist of the method: as §1
The test system of data set [13] is BP3 human B-cell lymphoma cell line. Briefly: Annexin V-FITC and propidium iodide assay. The class given is cell-based. As to conditions: Table 3; Annexin V-FITC and propidium iodide assay; heading: EC50 BP3; read-out: EC50 BP3.
Data set [14] relates to BCL-2 transgenic mice. Briefly: Oral efficacy study in BCL-2 transgenic mice, QDx5 for 3 weeks. As to conditions: low dose 0.06 mmol/kg oral. Here is the method:
The volume of administration was 10 ml/kg, i.e., typically 0.2 mL per 20 gm mouse. […] Age-matched, sex-matched mice were typically dosed 5 times weekly, using a regiment of daily dosing 5 consecutive days (Monday through Friday), followed by resting for 2 days, before resuming dosing. […] At conclusion of treatments, mice were sacrificed via intra-peritoneal (i.p.) injection of 0.7 ml of Avertin and whole blood was collected into Yellow-Top Serum Separator tubes (Becton Dickinson Vacutainer Systems Becton Dickinson and Company, Franklin Lakes, N.J. 07417-1885). Spleens were removed and weighed.
Age-matched and sex-matched BCL-2 transgenic mice were used for efficacy studies. BCL-2 transgenic mice spontaneously developed low grade B-cell lymphoma as characterized by splenomegaly, as a function of time. In BCL-2 transgenic mice, the disease progression can be divided into two stages; at the first stage, the disease is characterized by splenomegaly as a result of expansion of B-cells in spleen due to over-expressed BCL-2 in B6 mice, and at the second stage, another genetic hit(s) may strike, resulting in disseminated lymphoma as characterized by bulky lymphadenopathy as well as splenomegaly.
In this study, BCL-2 transgenic mice at the first stage were used for this efficacy study. […] At conclusion of treatment, BCL-2 transgenic mice were sacrificed via intraperitoneal injection of 0.7 ml of avertin (anesthetic solution) and spleen was removed and weighed. Splenocytes were isolated by the use of mouse erythrocyte lysing kit (RD Systems). Total splenocyte count was determined by trypane blue exclusion assays. % B-cell count was determined by FACS analysis after staining cells with CD-5, a B-cell marker.

[15] abbreviates: Homo sapiens, NCI-H460, Table 9, read-out: H460 EC50.
Where [16] appears, read: Homo sapiens, Table 9, read-out: RS11846 EC50 (Annexin V- and propidium iodide assay).
[17] abbreviates: Homo sapiens, NCI-H1299, Table 9, read-out: H1299 EC50.
Setting [18] is: Homo sapiens, PC3-ML, Table 9, read-out: PC3ML EC50.

Read-outs that look alike come from different tables or passages of the source.

For orientation: EC50 means the concentration giving half of the maximal effect. Usually IC50 stands for the concentration that gives 50% inhibition. As for `Cc1cc2c(C(=O)Cc3ccccc3)c(O)c(O)cc2c(O)c1-c1c(C)cc2c(C(=O)Cc3ccccc3)c(O)c(O)cc2c1O` [Compound I, 1,1′-(1,1′,6,6′,7,7′-hexahydroxy-3,3′-dimethyl-2,2′-binaphthyl-5,5′-diyl)bis(2-phenylethanone)], the “1D ^1H-NMR Binding Assay (BCL-XL)” value in data set [1] is reported as “+++”. Moreover, in [2], the “times more potent than Apogossypol, ITC Bcl-XL” value was 10. The “Cell Permeability” value in [3] is listed as “Medium”. Besides, the “times/fold more potent than Apogossypol, FP Mcl-1” value in data set [4] is approximately 5. Besides, the EC50 is 680 nM in data set [5] (setting [15]), 2600 nM in [6], 3000 to 5500 nM in data set [7] (setting [16]) and 3500 nM in data set [11] (setting [17]). Also, the “times more potent than Apogossypol, H460” value in [5] (vs Apogossypol) is reported as 4-5. In addition, the IC50 in data set [8] stood at 190 nM. In data set [8] (vs Apogossypol), the “times more effective than Apogossypol, FP Bcl-XL” value was approximately 20. Also, the “times/fold more potent than Apogossypol, FP Bcl-2” value in data set [9] was “approximately 8”. The “reduction of spleen weight” value in [10] (groups of six mice, compound I) is given as approximately 40%. The “reduction in spleen weight” value in [10] (single BCL-2 transgenic mouse, 60 μmmol/kg) was determined as 40%. In addition, in data set [12] (vs Apogossypol), the “fold more potent than Apogossypol, PC3ML” value was 2-5.

On to `Cc1cc2c(C(=O)C3CCCC3)c(O)c(O)cc2c(O)c1-c1c(C)cc2c(C(=O)C3CCCC3)c(O)c(O)cc2c1O` [Compound VI, (1,1′,6,6′,7,7′-hexahydroxy-3,3′-dimethyl-2,2′-binaphthyl-5,5′-diyl)bis(cyclopentylmethanone)], for which the “1D ^1H-NMR Binding Assay (BCL-XL)” value in data set [1] was “+”. Further, the “Cell Permeability” value in data set [3] is “Low”. Besides, the EC50 in data set [5] (setting [15]) is 1100 nM; in data set [6] it was 4000 nM; in [7] (setting [16]), 4500 nM; in data set [11] (setting [17]), 3100 nM; in data set [12] (setting [18]) it was 3400 nM. Further, the IC50 in [8] was found to be 450 nM.

As to `Cc1cc2c(C(=O)c3cccc4ccccc34)c(O)c(O)cc2c(O)c1-c1c(C)cc2c(C(=O)c3cccc4ccccc34)c(O)c(O)cc2c1O` [Compound VIII, (1,1′,6,6′,7,7′-hexahydroxy-3,3′-dimethyl-2,2′-binaphthyl-5,5′-diyl)bis(naphthalen-1-ylmethanone)], the “1D ^1H-NMR Binding Assay (BCL-XL)” value in [1] is given as “+”. Moreover, the “Cell Permeability” value in [3] is on record as “Low”. The EC50 in data set [5] (setting [15]) was 590 nM; in data set [6], 1800 nM; in data set [7] (setting [16]) it was 3000 to 5500 nM; in data set [11] (setting [17]), 2400 nM; in data set [12] (setting [18]), 3000 nM. Moreover, the IC50 in [8] came to 160 nM.

As for `Cc1cc2c(C(=O)c3nc4ccccc4s3)c(O)c(O)cc2c(O)c1-c1c(C)cc2c(C(=O)c3nc4ccccc4s3)c(O)c(O)cc2c1O` [Compound XVII, (1,1′,6,6′,7,7′-hexahydroxy-3,3′-dimethyl-2,2′-binaphthyl-5,5′-diyl)bis(benzo[d]thiazol-2-ylmethanone)], the “1D ^1H-NMR Binding Assay (BCL-XL)” value in data set [1] is listed as “+”. Besides, in data set [3], the “Cell Permeability” value is reported as “Medium”. In addition, the EC50 is 1400 nM in [5] (setting [15]); 2900 nM in data set [6]; 7000 nM in data set [7] (setting [16]); 5800 nM in [11] (setting [17]); 5200 nM in data set [12] (setting [18]). In addition, in [8], the IC50 lay in the range of 140 to 450 nM.

Regarding `Cc1cc2c(C(=O)C(C)(C)C)c(O)c(O)cc2c(O)c1-c1c(C)cc2c(C(=O)C(C)(C)C)c(O)c(O)cc2c1O` [Compound XVIII, 1,1′-(1,1′,6,6′,7,7′-hexahydroxy-3,3′-dimethyl-2,2′-binaphthyl-5,5′-diyl)bis(2,2-dimethylpropan-1-one)], the “1D ^1H-NMR Binding Assay (BCL-XL)” value in [1] was “++”. Moreover, the “Cell Permeability” value in data set [3] is “Medium”. The EC50 in data set [7] (Homo sapiens, read-out: RS11846 EC50 (Annexin V- and propidium iodide assay), Table 9) worked out at 14700 nM.

Take `CC(=O)O.Cc1cc2c(C(C)C)c(O)c(O)c(C=O)c2c(O)c1-c1c(C)cc2c(C(C)C)c(O)c(O)c(C=O)c2c1O` [Gossypol, reference compound]: the “1D-^1H NMR” value in [1] (Table 3, BCL-XL 25 μM, compound 200 μM) is recorded as “+++”. Besides, in data set [1], the “1D ^1H-NMR Binding Assay (BCL-XL)” value is “++”. The EC50 was 1420 nM in data set [13]; 3000 nM in data set [5] (Table 3, ATP-LITE assay, heading: EC50 H460, read-out: EC50 H460); 4200 nM in data set [7] (Table 3, Annexin V-FITC and propidium iodide assay, heading: EC50 RS11846, read-out: EC50 RS11846); 6000 nM in [11] (Table 3, ATP-LITE assay, heading: EC50 H1299, read-out: EC50 H1299); 3100 nM in [12] (Table 3, ATP-LITE assay, heading: EC50 PC3ML, read-out: EC50 PC3ML). The shrinkage of spleen result in data set [14] was “induced shrinkage of spleen to a considerable extent but not significantly”. In [14], the tolerability result was “well tolerated”. In addition, in [10] (Bcl-2 transgenic mouse, single ip injection 72 μmol/kg), the Tox was 2+. Also, in [10] (single ip 72 μmol/kg, maximum shrinkage no more than 50%), the “percentage of maximum reduction in spleen weight (maximal biological activity)” value was determined as 40%.
